Source: PMC3488320, “Indirubin derivative E804 inhibits angiogenesis” (BMC Cancer, 2012)

Target: T1, VEGFR-2 (Homo sapiens, UniProt P35968)
T1 construct: gene KDR
Assay: HTScan VEGFR-2 kinase assay kit (purified kinase, peptide substrate, pTyr-100 ELISA)
Format: biochemical

T1 sequence (P35968 20-1356): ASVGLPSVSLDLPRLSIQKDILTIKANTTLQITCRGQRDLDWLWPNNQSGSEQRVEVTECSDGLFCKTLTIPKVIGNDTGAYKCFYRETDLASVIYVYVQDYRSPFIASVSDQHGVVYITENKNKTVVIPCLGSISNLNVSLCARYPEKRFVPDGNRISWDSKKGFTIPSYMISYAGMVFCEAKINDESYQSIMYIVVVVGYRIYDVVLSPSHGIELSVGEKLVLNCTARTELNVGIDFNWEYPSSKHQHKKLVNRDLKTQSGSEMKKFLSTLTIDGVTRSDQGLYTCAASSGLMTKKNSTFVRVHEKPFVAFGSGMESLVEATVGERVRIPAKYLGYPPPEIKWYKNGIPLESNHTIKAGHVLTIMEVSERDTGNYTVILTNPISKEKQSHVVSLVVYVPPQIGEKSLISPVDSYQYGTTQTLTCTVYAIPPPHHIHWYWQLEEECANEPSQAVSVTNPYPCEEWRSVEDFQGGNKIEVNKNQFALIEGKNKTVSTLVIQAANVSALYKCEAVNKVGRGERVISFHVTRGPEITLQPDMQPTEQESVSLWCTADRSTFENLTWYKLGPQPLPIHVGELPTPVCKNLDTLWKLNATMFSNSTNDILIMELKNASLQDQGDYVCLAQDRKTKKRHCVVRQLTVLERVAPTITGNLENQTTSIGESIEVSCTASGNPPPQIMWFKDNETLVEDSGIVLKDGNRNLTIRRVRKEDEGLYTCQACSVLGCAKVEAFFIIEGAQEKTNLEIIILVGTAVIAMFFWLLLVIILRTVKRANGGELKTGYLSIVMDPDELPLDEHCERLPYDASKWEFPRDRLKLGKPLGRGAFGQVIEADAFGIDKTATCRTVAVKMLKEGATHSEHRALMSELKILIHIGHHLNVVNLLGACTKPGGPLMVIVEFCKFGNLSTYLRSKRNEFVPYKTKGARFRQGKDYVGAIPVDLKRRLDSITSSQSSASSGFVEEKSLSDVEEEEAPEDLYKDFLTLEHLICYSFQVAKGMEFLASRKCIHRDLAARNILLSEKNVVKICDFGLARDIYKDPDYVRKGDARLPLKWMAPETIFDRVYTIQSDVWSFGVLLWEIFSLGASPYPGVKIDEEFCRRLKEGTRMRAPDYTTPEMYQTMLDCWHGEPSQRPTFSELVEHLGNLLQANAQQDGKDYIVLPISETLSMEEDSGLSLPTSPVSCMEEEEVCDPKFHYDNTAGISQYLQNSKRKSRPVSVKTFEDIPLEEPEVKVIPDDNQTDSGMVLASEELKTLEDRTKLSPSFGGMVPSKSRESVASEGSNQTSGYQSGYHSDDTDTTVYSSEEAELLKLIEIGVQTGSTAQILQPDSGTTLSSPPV

- IC50: 0.95 µM
SMILES: O=C1Nc2ccccc2C1=C1Nc2ccccc2C1=NOCC(O)CO (stereo not shown) [IDR-E804]
